Here are results for seven compounds from ChEMBL document CHEMBL4382222, “Structural development of non-secosteroidal vitamin D receptor (VDR) ligands without any asymmetric carbon” (Bioorg Med Chem, 2018).

One experiment has as its target T1, Vitamin D3 receptor (Homo sapiens, UniProt P11473).
T1 sequence (P11473 whole entry): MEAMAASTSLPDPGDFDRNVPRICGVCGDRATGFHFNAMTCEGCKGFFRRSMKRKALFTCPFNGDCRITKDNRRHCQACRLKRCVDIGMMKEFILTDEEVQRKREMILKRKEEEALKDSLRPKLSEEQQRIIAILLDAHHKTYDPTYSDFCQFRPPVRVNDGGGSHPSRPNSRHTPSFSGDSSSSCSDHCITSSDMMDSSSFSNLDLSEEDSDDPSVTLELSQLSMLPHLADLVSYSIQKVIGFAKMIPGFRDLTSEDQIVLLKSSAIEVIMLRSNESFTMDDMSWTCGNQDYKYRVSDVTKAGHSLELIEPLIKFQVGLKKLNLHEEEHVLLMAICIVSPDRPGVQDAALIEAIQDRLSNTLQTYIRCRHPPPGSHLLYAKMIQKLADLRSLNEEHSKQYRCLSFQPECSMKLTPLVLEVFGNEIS
Kind of experiment: Agonist activity at human VDR expressed in HOS cells co-expressing human RXR by Dual-Glo luciferase reporter gene assay. The experiment is classed as cell-based. Background: A reporter such as luciferase makes a cellular process visible.

Experiment [1] addresses T2, Vitamin D3 receptor (Homo sapiens) (UniProt P11473).
T2 sequence (whole entry): T1 sequence (P11473 whole entry)
Kind of experiment: Agonist activity at human VDR expressed in HOS cells co-expressing human RXR at 0.00001 to 10 uM by Dual-Glo luciferase reporter gene assay relative to 1alpha,25(OH)2D3. The format is cell-based.

Usually EC50 stands for the concentration giving half of the maximal effect. A higher EC50 goes with a less potent agent. For orientation: Emax means the greatest response seen or fitted, relative to the assay's reference.

`CCC(CC)(c1ccc(OCCC(C)(C)O)c(C)c1)c1ccc(OCC(CO)CO)c(C)c1` gave a concentration giving a half-maximal response (EC50) on Vitamin D3 receptor of 76.9 nM. In experiment [1], this compound showed an Emax of 91%.
The matching figures for `CCC(O)(CC)COc1ccc(C(CC)(CC)c2ccc(OCC(CO)CO)c(C)c2)cc1C`: 9.26 nM and 100%.
The compound `CCC(CC)(c1ccc(OCCC(C)(C)O)c(C)c1)c1ccc(OC[C@@H](O)CO)c(C)c1` had an EC50 on Vitamin D3 receptor of 41.7 nM. Further, the Emax in experiment [1] worked out at 100%.
Taken in the same sequence, the figures for `CCC(CC)(c1ccc(OCC(CO)CO)c(C)c1)c1ccc(OCC(C)(C)O)c(C)c1` were 76.5 nM and 91%.
Consider `CCC(O)(CC)COc1ccc(C(CC)(CC)c2ccc(OC[C@@H](O)CO)c(C)c2)cc1C`, for which, on Vitamin D3 receptor, the half-maximal effective concentration (EC50) turned out to be 18 nM. The compound further gave an Emax in experiment [1] of 90%.
The matching figures for `CCC(CC)(c1ccc(OC[C@@H](O)CO)c(C)c1)c1ccc(OCC(C)(C)O)c(C)c1`: 163 nM and 67%.
Turning to `CCC(O)(CC)COc1ccc(C(CC)(CC)c2ccc(OC(CO)CO)c(C)c2)cc1C`, a half-maximal effect on Vitamin D3 receptor (EC50) was put at 17.2 nM. This compound showed an Emax in experiment [1] of 100%.
